The record followed here is patent publication US20160168130A1, “HETEROARYL SUBSTITUTED PYRAZOLES” (BAYER PHARMA AKTIENGESELLSCHAFT, priority 2013, published 2016).

The target of assay [1] is T1, catalytic domain of human Bub1 (amino acids 704-1085) (Homo sapiens, UniProt O43683).
T1 construct: catalytic domain of human Bub1 (amino acids 704-1085); His6 (N); made in house; host or cells: Hi5 insect cells
Briefly: Bub1 kinase assay (TR-FRET). The class given is biochemical. The conditions noted are these: 10 μM ATP, 1 μM peptide substrate, median, read-out: Biological Assay 1: Bub1 kinase assay median IC50. The source says: Bub1-inhibitory activities of compounds described in the present invention were quantified using a time-resolved fluorescence energy transfer (TR-FRET) kinase assay which measures phosphorylation of the synthetic peptide Biotin-Ahx-VLLPKKSFAEPG (C-terminus in amide form), purchased from e.g. Biosyntan (Berlin, Germany) by the (recombinant) catalytic domain of human Bub1 (amino acids 704-1085), expressed in Hi5 insect cells with an N-terminal His6-tag and purified by affinity-(Ni-NTA) and size exclusion chromatography.
In a typical assay 11 different concentrations of each compound (0.1 nM, 0.33 nM, 1.1 nM, 3.8 nM, 13 nM, 44 nM, 0.15 μM, 0.51 μM, 1.7 μM, 5.9 μM and 20 μM) were tested in duplicate within the same microtiter plate. To this end, 100-fold concentrated compound solutions (in DMSO) were previously prepared by serial dilution (1:3.4) of 2 mM stocks in a clear low volume 384-well source microtiter plate (Greiner Bio-One, Frickenhausen, Germany), from which 50 nL of compounds were transferred into a black low volume test microtiter plate from the same supplier. Subsequently, 2 μL of Bub1 (the final concentration of Bub1 was adjusted depending on the activity of the enzyme lot in order to be within the linear dynamic range of the assay: typically ˜200 ng/mL were used) in aqueous assay buffer [50 mM Tris/HCl pH 7.5, 10 mM magnesium chloride (MgCl2), 200 mM potassium chloride (KCl), 1.0 mM dithiothreitol (DTT), 0.1 mM sodium ortho-vanadate, 1% (v/v) glycerol, 0.01% (w/v) bovine serum albumine (BSA), 0.005% (v/v) Trition X-100 (Sigma), 1× Complete EDTA-free protease inhibitor mixture (Roche)] were added to the compounds in the test plate and the mixture was incubated for 15 min at 22° C. to allow pre-equilibration of the putative enzyme-inhibitor complexes before the start of the kinase reaction, which was initiated by the addition of 3 μL 1.67-fold concentrated solution (in assay buffer) of adenosine-tri-phosphate (ATP, 10 μM final concentration) and peptide substrate (1 μM final concentration). The resulting mixture (5 μL final volume) was incubated at 22° C. during 60 min., and the reaction was stopped by the addition of 5 μL of an aqueous EDTA-solution (50 mM EDTA, in 100 mM HEPES pH 7.5 and 0.2% (w/v) bovine serum albumin) which also contained the TR-FRET detection reagents (0.2 μM streptavidin-XL665 [Cisbio Bioassays, Codolet, France] and 1 nM anti-phosho-Serine antibody [Merck Millipore, cat. #35-001] and 0.4 nM LANCE EU-W1024 labeled anti-mouse IgG antibody [Perkin-Elmer, product no. AD0077, alternatively a Terbium-cryptate-labeled anti-mouse IgG antibody from Cisbio Bioassays can be used]). The stopped reaction mixture was further incubated 1 h at 22° C. in order to allow the formation of complexes between peptides and detection reagents. Subsequently, the amount of product was evaluated by measurement of the resonance energy transfer from the Eu-chelate-antibody complex recognizing the Phosphoserine residue to the streptavidin-XL665 bound to the biotin moiety of the peptide. To this end, the fluorescence emissions at 620 nm and 665 nm after excitation at 330-350 nm were measured in a TR-FRET plate reader, e.g. a Rubystar or Pherastar (both from BMG Labtechnologies, Offenburg, Germany) or a Viewlux (Perkin-Elmer) and the ratio of the emissions (665 nm/622 nm) was taken as indicator for the amount of phosphorylated substrate. The data were normalised using two sets of (typically 32—) control wells for high—(=enzyme reaction without inhibitor=0% =Minimum inhibition) and low—(=all assay components without enzyme=100%=Maximum inhibition) Bub1 activity. IC50 values were calculated by fitting the normalized inhibition data to a 4-parameter logistic equation (Minimum, Maximum, IC50, Hill; Y=Max+(Min−Max)/(1+(X/IC50)Hill)).

Assay [2] concerns HeLa human cervical cancer cell line. Briefly: Proliferation assay (crystal violet staining). Conditions: 96 h, HeLa cells, 4 days incubation, median, read-out: Biological Assay 2: Proliferation assay (HeLa cell line) median IC50. The class given is cell-based. As to the method: Cultivated tumor cells (cells were ordered from ATCC) were plated at a density of 3000 cells/well in a 96-well multititer plate in 200 μL of growth medium supplemented 10% fetal calf serum. After 24 hours, the cells of one plate (zero-point plate) were stained with crystal violet (see below), while the medium of the other plates was replaced by fresh culture medium (200 μL), to which the test substances were added in various concentrations (0 μM, as well as in the range of 0.001-10 μM; the final concentration of the solvent dimethyl sulfoxide was 0.5%). The cells were incubated for 4 days in the presence of test substances. Cell proliferation was determined by staining the cells with crystal violet: the cells were fixed by adding […] of an 11% glutaric aldehyde solution for 15 minutes at room temperature. After three washing cycles of the fixed cells with water, the plates were dried at room temperature. The cells were stained by adding 100 μL/measuring point of a 0.1% crystal violet solution (pH 3.0). After three washing cycles of the stained cells with water, the plates were dried at room temperature. The dye was dissolved by adding 100 μL/measuring point of a 10% acetic acid solution. Absorbtion was determined by photometry at a wavelength of 595 nm. The change of cell number, in percent, was calculated by normalization of the measured values to the absorbtion values of the zero-point plate(=0%) and the absorbtion of the untreated (0 μm) cells(=100%). The IC50 values were determined by means of a 4 parameter fit.

Some results are limits rather than exact numbers.

T1 sequence (O43683 704-1085): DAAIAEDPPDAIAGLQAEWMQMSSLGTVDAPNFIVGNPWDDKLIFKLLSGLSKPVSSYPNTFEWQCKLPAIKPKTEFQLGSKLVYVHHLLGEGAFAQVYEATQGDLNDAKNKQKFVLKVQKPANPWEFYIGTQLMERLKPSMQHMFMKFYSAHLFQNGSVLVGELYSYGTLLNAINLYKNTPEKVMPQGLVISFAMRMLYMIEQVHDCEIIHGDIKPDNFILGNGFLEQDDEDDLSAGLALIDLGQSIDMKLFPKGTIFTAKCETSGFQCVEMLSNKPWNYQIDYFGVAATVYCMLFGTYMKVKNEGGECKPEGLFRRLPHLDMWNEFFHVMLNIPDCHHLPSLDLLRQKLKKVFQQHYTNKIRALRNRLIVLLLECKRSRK

For the molecule `CCOc1cc(F)c(Cn2nc(-c3nccc(Nc4ccncn4)n3)c(Cl)c2C2CC2)c(F)c1` [Example 2-1-1, 2-[4-chloro-5-cyclopropyl-1-(4-ethoxy-2,6-difluorobenzyl)-1H-pyrazol-3-yl]-N-(pyrimidin-4-yl)pyrimidin-4-amine], the IC50 in assay [1] is 0.005 µM; in assay [2] it was more than 10 µM.

`CCOc1cc(F)c(Cn2nc(-c3ncc(OC)c(Nc4ccncn4)n3)c(C)c2C2CC2)c(F)c1` [Example 2-1-2, 2-[5-cyclopropyl-1-(4-ethoxy-2,6-difluorobenzyl)-4-methyl-1H-pyrazol-3-yl]-5-methoxy-N-(pyrimidin-4-yl)pyrimidin-4-amine]: the IC50 in assay [1] is 0.016 µM; in assay [2] it was 3.5 µM.

On to `CCOc1cc(F)c(Cn2nc(-c3nccc(Nc4ccncn4)n3)c(C)c2C2CC2)c(F)c1` [Example 2-1-3, 2-[5-cyclopropyl-1-(4-ethoxy-2,6-difluorobenzyl)-4-methyl-1H-pyrazol-3-yl]-N-(pyrimidin-4-yl)pyrimidin-4-amine], for which the values for the IC50 in assay [1] and in assay [2] were 0.017 µM and more than 10 µM, respectively.

In the case of `CCOc1cc(F)c(Cn2nc(-c3ncc(OC)c(Nc4ccnnc4)n3)c(C)c2C2CC2)c(F)c1` [Example 2-1-4, N-{2-[5-cyclopropyl-1-(4-ethoxy-2,6-difluorobenzyl)-4-methyl-1H-pyrazol-3-yl]-5-methoxy-pyrimidin-4-yl}pyridazin-4-amine], the IC50 was 0.052 µM in assay [1] and more than 10 µM in assay [2].

As to `CCOc1cc(F)c(Cn2cc(C)c(-c3ncc(OC)c(Nc4ccncn4)n3)n2)c(F)c1` [Example 2-1-5, 2-[1-(4-ethoxy-2,6-difluorobenzyl)-4-methyl-1H-pyrazol-3-yl]-5-methoxy-N-(pyrimidin-4-yl)pyrimidin-4-amine], the IC50 is 0.085 µM in assay [1] and more than 10 µM in assay [2].

For the molecule `CCOc1cc(F)c(Cn2cc(Cl)c(-c3ncc(OC)c(Nc4ccncn4)n3)n2)c(F)c1` [Example 2-1-6, 2-[4-chloro-1-(4-ethoxy-2,6-difluorobenzyl)-1H-pyrazol-3-yl]-5-methoxy-N-(pyrimidin-4-yl)pyrimidin-4-amine], the figures for the IC50 in assay [1] and in assay [2] were 0.1 µM and more than 10 µM, respectively.

For `COc1cnc(-c2cc(OC)n(Cc3ccccc3F)n2)nc1Nc1ccncn1` [Example 2-1-7, 2-[1-(2-fluorobenzyl)-5-methoxy-1H-pyrazol-3-yl]-5-methoxy-N-(pyrimidin-4-yl)pyrimidin-4-amine], the IC50 in assay [1] was 3.6 µM; in assay [2], more than 10 µM.
